According to the supplement of paper PMC10307832:

Assays:
Assay in all cases: relative viability (nuclei count vs DMSO), 5 days (fraction); higher = more cells survive
AZD5582 + Foretinib = compound: C[C@@H](C(=O)N[C@@H](C1CCCCC1)C(=O)N2CCC[C@H]2C(=O)N[C@@H]3[C@@H](CC4=CC=CC=C34)OCC#CC#CCO[C@@H]5CC6=CC=CC=C6[C@@H]5NC(=O)[C@@H]7CCCN7C(=O)[C@H](C8CCCCC8)NC(=O)[C@H](C)NC)NC [AZD5582] + COc1cc2c(Oc3ccc(NC(=O)C4(C(=O)Nc5ccc(F)cc5)CC4)cc3F)ccnc2cc1OCCCN1CCOCC1 [Foretinib] (partner 0.25 µM)
Procedure, shortened: (§1)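 Nuclei were stained with Hoechst during a one-step fixation (final 0.05% Triton X-100, 1% formaldehyde, 1 ug/ml Hoechst) carried out 5 days after dosing, then counted on 4× images. The cells, lung cancer lines in 1536-well plates, had been dosed by pin tool the day after seeding with one drug alone or a fixed anchor-drug dose plus five library-drug doses (not always all listed) in √10 steps. Relative viability is the nuclei count in treated wells divided by that in vehicle wells, and each value is the median of duplicate plates.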

AZD5582 + Decitabine = compound: C[C@@H](C(=O)N[C@@H](C1CCCCC1)C(=O)N2CCC[C@H]2C(=O)N[C@@H]3[C@@H](CC4=CC=CC=C34)OCC#CC#CCO[C@@H]5CC6=CC=CC=C6[C@@H]5NC(=O)[C@@H]7CCCN7C(=O)[C@H](C8CCCCC8)NC(=O)[C@H](C)NC)NC [AZD5582] + Nc1ncn([C@H]2C[C@H](O)[C@@H](CO)O2)c(=O)n1 [Decitabine] (partner 2 µM)
Procedure, shortened: as §1

AZD5582 + Vorinostat = compound: C[C@@H](C(=O)N[C@@H](C1CCCCC1)C(=O)N2CCC[C@H]2C(=O)N[C@@H]3[C@@H](CC4=CC=CC=C34)OCC#CC#CCO[C@@H]5CC6=CC=CC=C6[C@@H]5NC(=O)[C@@H]7CCCN7C(=O)[C@H](C8CCCCC8)NC(=O)[C@H](C)NC)NC [AZD5582] + O=C(CCCCCCC(=O)Nc1ccccc1)NO [Vorinostat] (partner 1 µM)
Procedure, shortened: as §1

[1] = compound: Cn1nnc2c(C(N)=O)ncn2c1=O [Temozolomide] + CC1(C)CCC(c2ccc(Cl)cc2)=C(CN2CCN(c3ccc(C(=O)NS(=O)(=O)c4ccc(N[C@H](CCN5CCOCC5)CSc5ccccc5)c(S(=O)(=O)C(F)(F)F)c4)cc3)CC2)C1 [Navitoclax] (partner 0.5 µM)
Procedure, shortened: as §1

Cell Line | relative viability (AZD5582 + Foretinib; first compound 0.001581 µM) | relative viability (AZD5582 + Foretinib; first compound 0.005 µM) | relative viability (AZD5582 + Foretinib; first compound 0.01581 µM) | relative viability (AZD5582 + Foretinib; first compound 0.05 µM) | relative viability (AZD5582 + Decitabine; first compound 0.001581 µM) | relative viability (AZD5582 + Decitabine; first compound 0.005 µM) | relative viability (AZD5582 + Decitabine; first compound 0.01581 µM) | relative viability (AZD5582 + Decitabine; first compound 0.05 µM) | relative viability (AZD5582 + Vorinostat; first compound 0.001581 µM) | relative viability (AZD5582 + Vorinostat; first compound 0.005 µM) | relative viability (AZD5582 + Vorinostat; first compound 0.01581 µM) | relative viability (AZD5582 + Vorinostat; first compound 0.05 µM) | relative viability ([1]; first compound 0.2 µM) | relative viability ([1]; first compound 0.6325 µM) | relative viability ([1]; first compound 2 µM) | relative viability ([1]; first compound 6.325 µM) | relative viability ([1]; first compound 20 µM)
NCI-H2405 | 1 | 1.07 | 0.987 | 1.06 | 0.772 | 0.861 | 0.687 | 0.721 | 1.04 | 1.1 | 0.88 | 1.11 | 0.34 | 0.775 | 0.995 | 0.73 | 0.82
PC-3 [JPC-3] | 0.866 | 0.809 | 0.96 | 0.488 | 0.737 | 0.641 | 0.855 | 0.431 | 0.714 | 0.532 | 0.664 | 0.43 | 0.725 | 0.847 | 0.784 | 0.82 | 0.364
NCI-H1666 | 0.786 | 1.02 | 0.953 | 0.907 | 0.658 | 0.73 | 0.626 | 0.704 | 0.848 | 0.891 | 1.05 | 0.958 | 0.831 | 0.933 | 0.764 | 0.768 | 0.454
COR-L 105 | 1.02 | 1.32 | 0.888 | 1.16 | 0.666 | 0.724 | 0.632 | 0.723 | 0.843 | 0.912 | 0.727 | 0.878 | 0.819 | 0.866 | 0.996 | 0.858 | 0.649
NCI-H2085 | 1.06 | 0.776 | 0.924 | 0.698 | 0.527 | 0.644 | 0.608 | 0.545 | 0.82 | 1 | 0.73 | 0.917 | 1.2 | 1.24 | 1.24 | 1.18 | 1.06
SK-MES-1 | 0.878 | 1.29 | 0.967 | 1.24 | 0.336 | 0.365 | 0.416 | 0.347 | 1.08 | 1.19 | 1.02 | 1.26 | 1.22 | 1.16 | 1.23 | 1.22 | 1.38
NCI-H1734 | 0.814 | 0.892 | 0.968 | 1.11 | 0.479 | 0.527 | 0.484 | 0.514 | 0.754 | 0.85 | 0.889 | 0.877 | 0.803 | 0.854 | 0.886 | 0.811 | 0.835
NCI-H520 | 0.651 | 0.777 | 0.81 | 0.697 | 0.504 | 0.515 | 0.509 | 0.557 | 0.833 | 0.724 | 0.758 | 0.712 | 1.13 | 1.09 | 1.15 | 1.12 | 1.01
LK-2 | 0.88 | 1.12 | 1.49 | 1.25 | 0.257 | 0.277 | 0.307 | 0.326 | 0.269 | 0.295 | 0.236 | 0.304 | 0.756 | 0.874 | 0.851 | 0.475 | 0.35
LXF-289 | 0.941 | 0.944 | 1.03 | 0.977 | 0.372 | 0.331 | 0.391 | 0.308 | 0.698 | 0.779 | 0.641 | 0.905 | 0.98 | 0.91 | 0.946 | 0.937 | 0.847
EMC-BAC-2 | 0.867 | 0.809 | 1.02 | 0.412 | 0.892 | 0.97 | 0.887 | 0.841 | 0.406 | 0.474 | 0.375 | 0.546 | 1.07 | 1.24 | 1.16 | 1.2 | 1.2
201T | 1.09 | 1.43 | 1.12 | 1.45 | 0.866 | 0.913 | 0.856 | 1.02 | 1.05 | 1.11 | 0.919 | 1.22 | 1.17 | 1.18 | 1.21 | 1.2 | 1.22
ChaGo-K-1 | 0.882 | 0.9 | 0.83 | 1.1 | 0.545 | 0.579 | 0.509 | 0.597 | 0.718 | 0.767 | 0.711 | 0.739 | 1.11 | 1.16 | 1.45 | 0.968 | 0.964
RERF-LC-KJ | 0.758 | 0.836 | 0.855 | 0.924 | – | – | 0.779 | 0.208 | 0.306 | 0.225 | 0.655 | 0.283 | 1.04 | 0.884 | 0.928 | 0.951 | 1.06
SW 1573 | 0.736 | 1 | 0.885 | 0.853 | 0.551 | 0.631 | 0.674 | 0.685 | 0.492 | 0.865 | 1.12 | 1.12 | 0.993 | 1.03 | 1.05 | 1 | 0.935
NCI-H2347 | 0.688 | 0.736 | 0.557 | 0.794 | 0.701 | 0.624 | 0.668 | 0.469 | 0.63 | 0.547 | 0.515 | 0.483 | 0.818 | 0.825 | 0.441 | 0.73 | 0.732
NCI-H2126 | 1.15 | 1.19 | 1.05 | 0.969 | 0.53 | 0.577 | 0.581 | 0.59 | 0.817 | 0.84 | 0.47 | 0.704 | 0.853 | 0.829 | 0.83 | 0.886 | 0.844
